Results from US20240197788A1, “PHARMACEUTICAL COMPOSITION FOR PREVENTING OR TREATING PARKINSON'S DISEASE, AND PREPARATION METHOD THEREOF” (INDUSTRY FOUNDATION OF CHONNAM NATIONAL UNIVERSITY, priority 2021, published 2024).

What was measured:
[1] = system: NF—H, β3-tubulin, NeuN, SYP; assay: Western blot of neuron-specific proteins in SH-SY5Y cells; type: cell-based, human; details: rotenone treatment (0.5 μM, 48 hours); FIGS. 13A-13D, 14A-14D
Procedure: (§1) After incubation for a total of 48 hours, the cells were scraped using a cell scraper, washed twice with PBS, and then exposed to a cell lysis buffer supplemented with protease inhibitor and phosphatase inhibitor (100 mM Tris-HCl (pH 7.6), 100 mM NaCl, 1% Nonidet P-40, 1% sodium deoxycholate, 0.1% sodium dodecyl sulfate (SDS) and 1% Triton X-100), followed by incubation on ice for 30 minutes. The eluate was centrifuged at 13,200 rpm and at 4° C. for 15 minutes, and the supernatant was collected. The protein concentration was measured using a BCA protein assay kit (Thermo Fisher Scientific, Waltham, MA, USA #23225) according to the manufacturer's instructions.
Protein (15 μg) was separated on an 8-14% SDS-polyacrylamide gel and transferred to a nitrocellulose membrane (Millipore, Berlington, MA, USA, HATF00010), and the membrane was washed with PBS containing 0.5% (v/v) Tween 20 (PBS-T), followed by blocking with 5% (v/v) non-fat dry milk solution included in the preparation of PBS-T. Then, it was incubated overnight at 4° C. with the primary antibody. Thereafter, the cell membrane was exposed to a secondary antibody conjugated to horseradish peroxidase at room temperature (RT) for 2-3 hours, and washed three times with PBS-T. Signals were detected by an enhanced chemiluminescence (ECL) system (Millipore, WBLUR0500) using a LAS 4000 luminescent image analyzer (GE Healthcare, Japan). […]

[2] = system: procaspase-9, 3 and 7, PARP-1; assay: Western blot of caspase proteins and PARP-1 cleavage in SH-SY5Y cells; type: cell-based, human; details: rotenone alone; FIGS. 17A-17D, 18A-18D
Procedure: (§2) SH-SY5Y cells were divided into a treated group treated with ROT (0.5 μM) for 24 hours and an untreated group, followed by culturing in DMSO solvent. Thereafter, the culture was removed, and the cells were divided into hBMSC-CM-treated group, NI-hBMSC-CM-treated group, hADSC-CM-treated group and NI-hADSC-CM-treated group in 50% diluted DMEM, followed by culturing each group in ROT (0.5 μM)-treated and untreated groups, respectively, for 24 hours. FBS was maintained at a concentration of 1% throughout the study. Phase contrast images were taken using an Olympus microscope (CKX41) equipped with a camera. […] The number of surviving cells was counted using LUNA-II™ (Logos Biosystems, Gyeonggi-do, Republic of Korea) automatic cell counter. Cell count analysis was performed three times and expressed as a percentage (%) of the control.
(§3) After incubation for a total of 48 hours, the cells were scraped using a cell scraper, washed twice with PBS, and then exposed to a cell lysis buffer supplemented with protease inhibitor and phosphatase inhibitor (100 mM Tris-HCl (pH 7.6), 100 mM NaCl, 1% Nonidet P-40, 1% sodium deoxycholate, 0.1% sodium dodecyl sulfate (SDS) and 1% Triton X-100), followed by incubation on ice for 30 minutes. […] The protein concentration was measured using a BCA protein assay kit (Thermo Fisher Scientific, Waltham, MA, USA #23225) according to the manufacturer's instructions. […]

[3] = system: BAX, Bcl-2 and Mcl-1; assay: Western blot of apoptosis-related proteins Bax, Bcl-2, Mcl-1 in SH-SY5Y cells; type: cell-based, human; details: rotenone alone
Procedure: (§4) SH-SY5Y cells were divided into a treated group treated with ROT (0.5 μM) for 24 hours and an untreated group, followed by culturing in DMSO solvent. Thereafter, the culture was removed, and the cells were divided into hBMSC-CM-treated group, NI-hBMSC-CM-treated group, hADSC-CM-treated group and NI-hADSC-CM-treated group in 50% diluted DMEM, followed by culturing each group in ROT (0.5 μM)-treated and untreated groups, respectively, for 24 hours. FBS was maintained at a concentration of 1% throughout the study. Phase contrast images were taken using an Olympus microscope (CKX41) equipped with a camera. Damaged and depleted suspended cells in the culture and adherent cells isolated by trypsinization were combined and a trypan blue cell counting method was applied. The number of surviving cells was counted using LUNA-II™ (Logos Biosystems, Gyeonggi-do, Republic of Korea) automatic cell counter. Cell count analysis was performed three times and expressed as a percentage (%) of the control.
as §1
Protein (15 μg) was separated on an 8-14% SDS-polyacrylamide gel and transferred to a nitrocellulose membrane (Millipore, Berlington, MA, USA, HATF00010), and the membrane was washed with PBS containing 0.5% (v/v) Tween 20 (PBS-T), followed by blocking with 5% (v/v) non-fat dry milk solution included in the preparation of PBS-T. Then, it was incubated overnight at 4° C. with the primary antibody. […]

[4] = system: Triton X-100 insoluble alpha-synuclein (p-S129 α-syn, total α-syn); assay: Western blot of Triton X-100 insoluble alpha-synuclein in SH-SY5Y cells; type: cell-based, human; details: ROT-treated group, insoluble fraction
Procedure: as §4
After 48 hours of experiment, SH-SY5Y cells were lysed in cell lysis buffer containing a protease inhibitor and a phosphatase inhibitor together with the above-described 1% Triton X-100 for 30 minutes. […] The protein concentration was measured using a BCA protein assay kit. […] The same protein load was assessed by the expression level of GAPDH used as an internal control. […]

[5] = system: tyrosine hydroxylase (TH); assay: Western blot of tyrosine hydroxylase protein expression in SH-SY5Y cells; type: cell-based, human; details: 0.5 μM rotenone alone; FIGS. 3 and 4
Procedure: as §2, §3

[6] = Rotenone toxicity, trypan blue cell counting of surviving cells; type: cell-based; details: human, SH-SY5Y neuroblastoma cells, 0.5 μM rotenone
Procedure: The human neuroblastoma cell line, that is, SH-SY5Y (RRID: CVCL 0019; ATCC® CRL-2266) was cultured in DMEM supplemented with 10% FBS and 1% penicillin-streptomycin (Welgene Inc., Gyeonsangbuk-do, Republic of Korea) at 37° C. under a wet condition of 5% CO2/95% air. The mixed culture (passages 15-22) was washed with phosphate-buffered saline (PBS), the cells were isolated with 0.25% trypsin-EDTA solution and then reseeded in DMEM containing 1% FBS at 5×10^4 cells/Ml. Then, after overnight incubation, it was used for experiments. ROT (Sigma R8875) stock was prepared at a concentration of 10 mM in […] (DMSO; Sigma D2650) solvent, stored at −80° C., and used within 6 months. Before starting each experiment, a serum-free DMEM culture was diluted to prepare a ROT stock working solution.
SH-SY5Y cells were divided into a treated group treated with ROT (0.5 μM) for 24 hours and an untreated group, followed by culturing in DMSO solvent. […] The number of surviving cells was counted using LUNA-II™ (Logos Biosystems, Gyeonggi-do, Republic of Korea) automatic cell counter. Cell count analysis was performed three times and expressed as a percentage (%) of the control.

Compound: C=C(C)[C@H]1Cc2c(ccc3c2O[C@@H]2COc4cc(OC)c(OC)cc4[C@@H]2C3=O)O1 [rotenone]
- expression of NF—H, β3-tubulin, NeuN and SYP [1]: reduced
- cleaved-PARP/pro-PARP ratio [2]: greatly increased
- expression of procaspase-9, 3 and 7 [2]: greatly decreased
- Bax/Bcl-2 ratio [3]: greatly increased
- Bax expression ([3]; FIGS. 15A-15D, 16A-16D): significantly increased
- expression of Bcl-2 and Mcl-1 ([3]; FIGS. 15A-15D, 16A-16D): significantly inhibited
- phosphorylated S129 alpha-synuclein/total alpha-synuclein ratio with respect to dimers and monomers [4]: significantly decreased
- protein expression of tyrosine hydroxylase [5]: decreased
- viability at 48 h, 0.5 μM [6]: 55%
